“And” between values parts separate entries of the source, which are not always exact repeats. Equal values may be shown once.
What was measured:
[1] = system: PDE extracts prepared from rat PRP (cAMP hydrolysis); experiment: Phosphodiesterase activity in platelet extracts, hydrolysis of cAMP (HPLC); assay type: biochemical; conditions: vehicle = 100%, single replicates
Description: The effects of naringenin on PDE activity were determined using high-performance liquid chromatography (HPLC) ([Hu et al., 2011]). Briefly, PRP was pelleted by centrifugation for 10 min at 900 × g and homogenized in PBS containing 0.1% Triton X-100 using an ultrasonic homogenizer. After centrifugation at 12,000 × g for 20 min at 4°C, the supernatant was subjected to PDE activity assay.
DMSO vehicle or different concentrations naringenin were added to assay buffer (137 mM NaCl, 2.7 mM KCl, 8.8 mM Na2HPO4, 1.5 mM KH2PO4, 1 mM CaCl2, 1 mM MgCl2, pH 7,4) containing cAMP or cGMP. The reaction was initiated by adding 30 μL PDE extracts prepared from rat PRP as described above. Some extracts were boiled for 3 min to inactivate PDE before addition. After incubation for 30 min at […], the reaction was terminated by boiling the mixture for 3 min. Subsequently, the mixture was cooled on ice followed by centrifugation at 12,000 × g for 20 min at 4°C. The supernatant was subjected cAMP or cGMP assay using HPLC. PDE activity was expressed as percentages of the hydrolysis of cAMP or cGMP.

[2] = system: intracellular calcium in washed platelets; experiment: Calcium mobilization in ADP-induced platelets (Fluo 3-AM, flow cytometry); assay type: cell-based, rat; conditions: for Calcium mobilisation (%): ADP 10 μM, single replicates
Description: Calcium mobilization in ADP-induced platelets was measured using flow cytometry. Washed platelets were incubated with Fluo 3-AM (5 μM) at 37°C for 30 min and washed. The Fluo 3-loaded platelets were preincubated with vehicle or different concentrations of naringenin at 37°C for 5 min in the presence of 1 mM CaCl2 and then stimulated with ADP (10 μM) for 5 min. The fluorescence intensity was analyzed using an Accuri C6 flow cytometer.

washed rat platelets = experiment: ADP (10 μM)-induced aggregation of washed rat platelets; assay type: cell-based; conditions: for ADP-induced platelet aggregation (control group taken as 100%): mean ± SD, n = 6
Description: Platelet-rich plasma (PRP) was obtained, and after the addition of 100 ng/ml PGE1, platelets were pelleted at 900 × g for 10 min. […] Washed platelets were preincubated with vehicle (0.4% dimethyl sulfoxide) or various concentrations of naringenin in the presence of 2 mM CaCl2 for 5 min at 37°C, and then further stimulated by ADP (10 μM), thrombin (0.2 U/mL) or collagen (2 μg/ml). The maximum platelet aggregation rate was detected within 5 min with continuous stirring.
Platelet aggregation was induced by ADP using washed platelets and PRP. Washed platelets were preincubated with vehicle (containing 0.4% DMSO) or different doses (100, 200, 400, and 800 μM) of naringenin or naringin for 5 min before activation with ADP (10 μM) for 5 min.
FIGURE 1 Effects of naringenin and naringin on platelet aggregation. Chemical structure of naringin (A) and naringenin (B). The effects of naringin (C) or naringenin (D) on PRP were measured following stimulation with 10 μmol/L ADP. Rat washed platelet aggregation performed with or without different concentrations of naringin (E) or naringenin (F) was recorded after stimulation with 10 μmol/L ADP. Similarly, Washed platelet aggregation performed with vehicle or various concentrations of naringenin was recorded after stimulation with 0.2 U/mL thrombin (G) or 2 μg/ml collagen (H). WP represents washed platelets. Data are expressed as means ± SD (n = 6), the level of aggregation obtained at 5 min with vehicle-treated samples (0 μM) was taken as 100%. *p < 0.05, **p < 0.01, ***p < 0.001 compared with the vehicle control group.

cGMP = experiment: Measurement of cGMP in washed platelets (ELISA); assay type: cell-based, rat; conditions: single replicates
Description: Washed platelets were preincubated with vehicle or various concentrations of naringenin in the presence of 2 mM CaCl2 at 37°C for 5 min and then stimulated with ADP (10 μM) for 5 min for platelet aggregation. The reaction was terminated by adding EDTA (10 mM). The platelets were boiled for 5 min at 100 °C followed by centrifugation at 13,000 × g for 5 min cAMP and cGMP levels in the supernatant were measured using cAMP or cGMP enzyme immunoassay kits (Cayman Chemicals, Ann Arbor, MI, United States).
FIGURE 6 Naringenin elevates platelet cGMP levels and inhibits phosphodiesterase activity. The levels of cAMP (A) and cGMP (B) in washed platelets preincubated with vehicle or naringenin (100, 200, 400, and 800 μmol/L) were determined after stimulation with ADP (10 μmol/L) using ELISA kits. Similarly, the levels of cAMP (C) and cGMP (D) were determined in resting platelets incubated with naringenin (200, 400, and 800 μmol/L) or vehicle for 5 min. R represents the levels of cAMP or cGMP in resting platelets. Data are expressed as means ± SD (n = 4). *p < 0.05, ***p < 0.001 compared with the vehicle control group. The effects of naringenin on phosphodiesterase activity were measured by HPLC on the hydrolysis of cAMP (E) and cGMP (F). The level of phosphodiesterase activity obtained with vehicle control (0 μM) was taken as 100%. Data are expressed as means ± SD (n = 3). *p < 0.05, ***p < 0.001 compared with the vehicle control group.

[3] = system: washed platelets on collagen-coated coverslips; experiment: Platelet adhesion on collagen-coated surface; assay type: cell-based, rat; conditions: for Area (%) of platelets adherent on collagen: single replicates
Description: Washed platelets were treated with naringenin or vehicle at 37°C for 10 min in the presence of 2 mM CaCl2 ([Suzuki-Inoue et al., 2001]). The platelets were added to collagen-coated coverslips and incubated at 37°C for 45 min. After unbound platelets were removed by washing, adherent platelets were fixed with 4% paraformaldehyde, permeabilized with 0.1% Triton X-100 and stained with TRITC-conjugated phalloidin (1 μg/ml). Adherent platelets were viewed using an inverted fluorescence microscope (Nikon TE-2000S) and processed using Image J software.

O=C1C[C@@H](c2ccc(O)cc2)Oc2cc(O)cc(O)c21 [Naringenin]
PDE activity (%) ([1]; 100 μM): 78.12% and 75.15% and 93.45%
PDE activity (%) ([1]; 200 μM): 76.39% and 84.94% and 63.29%
PDE activity (%) ([1]; 400 μM): 79.01% and 85.41% and 68.34%
PDE activity (%) ([1]; 800 μM): 43.72% and 69.43% and 76.24%
mobilization of intracellular calcium induced by ADP ([2]; 400 and 800 μM): significantly prevented
Calcium mobilisation (%) ([2]; 200 μM): 46.06% and 50.52% and 43.09%
Calcium mobilisation (%) ([2]; 400 μM): 35.32% and 30.53% and 43.33%
Calcium mobilisation (%) ([2]; 800 μM): 34.54% and 21.04% and 26.06%
IC50 (washed rat platelets; ADP 10 μM): ~118 µM
reduction of aggregation of washed platelets (washed rat platelets; ADP-induced, 100 μM): 45%
Aggregation (%) (washed rat platelets; Figure 5A: washed platelets, ADP 10 μM, naringenin 200 μM alone, single replicates): 38.3% and 37.5% and 34.7% and 44.0% and 29.6% and 42.4%
IC50 (washed rat platelets; Rattus norvegicus, Platelet, ADP 10 μM): 118 ± 10.4 µM
activity at 100 µM (washed rat platelets; Rattus norvegicus, Platelet, washed platelets, ADP 10 μmol/L, compound 100 μM, single replicates, read-out: Aggregation % of control): 50.4%
activity at 400 µM (washed rat platelets; Rattus norvegicus, Platelet, washed platelets, ADP 10 μmol/L, compound 400 μM, single replicates, read-out: Aggregation % of control): 12%
activity at 800 µM (washed rat platelets; Rattus norvegicus, Platelet, washed platelets, ADP 10 μmol/L, compound 800 μM, single replicates, read-out: Aggregation % of control): 6.7%
level of inhibition relative to naringin (washed rat platelets; washed platelets, ADP 10 μM, 800 μM): 11 fold
ADP-induced platelet aggregation (control group taken as 100%) (washed rat platelets; washed platelets, ADP 10 μM, compound 100 μM): 54.5 ± 6.2%
ADP-induced platelet aggregation (control group taken as 100%) (washed rat platelets; washed platelets, ADP 10 μM, compound 800 μM): 6.3 ± 1.7%
Aggregation (%) (washed rat platelets; washed platelets, ADP 10 μmol/L, compound 100 μM, raw data, single replicates): 35.6% and 34.2% and 43.2% and 37.5% and 36.0% and 44.7%
Aggregation % of control (washed rat platelets; washed platelets, ADP 10 μmol/L, compound 100 μM, single replicates, 100 µM): 48.4 % of control and 61.1 % of control and 53.1 % of control and 51.0 % of control and 63.3 % of control
Aggregation (%) (washed rat platelets; washed platelets, ADP 10 μmol/L, compound 200 μM, raw data, single replicates): 24.7% and 26.3% and 34.7% and 21.2% and 13.9% and 29.4%
Aggregation % of control (washed rat platelets; washed platelets, ADP 10 μmol/L, compound 200 μM, single replicates, 200 µM): 35.0 % of control and 37.2 % of control and 49.1 % of control and 30.0 % of control and 19.7 % of control and 41.6 % of control
Aggregation (%) (washed rat platelets; washed platelets, ADP 10 μmol/L, compound 400 μM, raw data, single replicates): 8.5% and 6.2% and 6.9% and 8.1% and 8.7% and 7.6%
Aggregation % of control (washed rat platelets; washed platelets, ADP 10 μmol/L, compound 400 μM, single replicates, 400 µM): 8.8 % of control and 9.8 % of control and 11.5 % of control and 12.3 % of control and 10.8 % of control
Aggregation (%) (washed rat platelets; washed platelets, ADP 10 μmol/L, compound 800 μM, raw data, single replicates): 4.7% and 3.7% and 5.6% and 6.1% and 3.6% and 3.1%
Aggregation % of control (washed rat platelets; washed platelets, ADP 10 μmol/L, compound 800 μM, single replicates, 800 µM): 5.2 % of control and 7.9 % of control and 8.6 % of control and 5.1 % of control and 4.4 % of control
cGMP release (cGMP; ADP 10 μmol/L-stimulated platelets, 100 μM): 24.01 pmol/mL and 25.36 pmol/mL and 20.40 pmol/mL and 17.36 pmol/mL
cGMP release (cGMP; ADP 10 μmol/L-stimulated platelets, 200 μM): 33.37 pmol/mL and 25.13 pmol/mL and 28.27 pmol/mL and 30.16 pmol/mL
cGMP release (cGMP; ADP 10 μmol/L-stimulated platelets, 400 μM): 35.44 pmol/mL and 31.24 pmol/mL and 34.51 pmol/mL and 37.74 pmol/mL
cGMP release (cGMP; ADP 10 μmol/L-stimulated platelets, 800 μM): 43.44 pmol/mL and 33.82 pmol/mL and 49.35 pmol/mL and 41.72 pmol/mL
cGMP release (cGMP; resting platelets, 200 μM, 5 min): 32.45 pmol/mL and 25.29 pmol/mL and 28.34 pmol/mL and 23.70 pmol/mL
cGMP release (cGMP; resting platelets, 400 μM, 5 min): 30.89 pmol/mL and 30.12 pmol/mL and 36.90 pmol/mL and 24.38 pmol/mL
cGMP release (cGMP; resting platelets, 800 μM, 5 min): 36.72 pmol/mL and 44.35 pmol/mL and 55.79 pmol/mL and 49.00 pmol/mL
Area (%) of platelets adherent on collagen ([3]; 100 μM): 29.32% and 16.92% and 17.38%
Area (%) of platelets adherent on collagen ([3]; 200 μM): 17.54% and 13.16% and 17.35%
Area (%) of platelets adherent on collagen ([3]; 400 μM): 12.99% and 15.28% and 9.21%
Area (%) of platelets adherent on collagen ([3]; 800 μM): 2.55% and 1.74% and 1.66%
platelet adhesion on collagen-coated surface ([3]; 200, 400 and 800 μM): significantly reduced
